What follows are compounds tested against T1, human FSH receptor (Homo sapiens, UniProt P23945) (assay: Agonistic activity at the human FSH receptor expressed in CHO cells (CRE-luciferase reporter)). Details: CHO cells stably transfected with human FSH receptor and CRE/luciferase reporter; 4 hours incubation; pEC50 is -log EC50.
T1 construct: expressed in transfected cells; host or cells: CHO (Chinese Hamster Ovary) cells, stably transfected, cotransfected with CRE-luciferase reporter
T1 sequence (P23945 18-695): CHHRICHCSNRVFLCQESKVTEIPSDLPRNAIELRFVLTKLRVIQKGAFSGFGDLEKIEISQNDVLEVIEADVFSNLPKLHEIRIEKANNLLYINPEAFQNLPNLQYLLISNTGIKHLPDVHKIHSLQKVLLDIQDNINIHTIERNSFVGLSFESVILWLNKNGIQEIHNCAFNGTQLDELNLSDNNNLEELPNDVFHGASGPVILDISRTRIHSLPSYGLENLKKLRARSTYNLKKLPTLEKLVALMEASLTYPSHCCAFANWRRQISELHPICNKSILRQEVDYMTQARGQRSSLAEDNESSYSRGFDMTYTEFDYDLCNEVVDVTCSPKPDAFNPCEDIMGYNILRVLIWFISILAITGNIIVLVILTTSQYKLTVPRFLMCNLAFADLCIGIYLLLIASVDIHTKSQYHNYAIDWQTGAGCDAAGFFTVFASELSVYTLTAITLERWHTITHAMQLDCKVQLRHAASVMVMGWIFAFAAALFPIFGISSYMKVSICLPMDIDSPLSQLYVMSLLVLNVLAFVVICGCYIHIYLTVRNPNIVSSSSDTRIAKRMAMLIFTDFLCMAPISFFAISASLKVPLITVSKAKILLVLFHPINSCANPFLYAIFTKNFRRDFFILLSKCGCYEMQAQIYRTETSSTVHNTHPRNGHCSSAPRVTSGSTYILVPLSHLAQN
Format: cell-based
Source text: The term EC50 means the concentration of the test compound that elicits half-maximal (50%) stimulation compared to the compound's maximally attainable effect. pEC50 is the negative log of EC50. The values can be determined e.g. in a cell line transfected with a FSH receptor gene and cotransfected with a cAMP responsive element/promoter directing the expression of a reporter gene. For the determination a software program such as MathIQ (version 2.0, ID Business Solutions Limited) can be used.
Agonistic activity of the compounds at the human FSH receptor was determined in Chinese Hamster Ovary (CHO) cells stably transfected with the human FSH receptor and cotransfected with a cAMP responsive element (CRE)/promotor directing the expression of a firefly luciferase reporter gene. Binding of the compounds to the Gs protein-coupled FSH receptor will result in an increase of cAMP, which in turn will induce an increased transactivation of the luciferase reporter. Cells (7,500 cells/well of a 384 well plate) were incubated in Dulbecco' minimal essential F12 modified medium (Invitrogen), supplemented with 1 μg/ml bovine insulin, 5 μg/ml human apo-transferrin, 80 U/ml penicillin G and 80 μg/ml streptomycin with the test compounds (concentration between 0.0316 nM and 10.0 μM) in duplicate in a humidified atmosphere (95%) at 5-7% CO2 and 37° C. The final concentration of DMSO was 1%. After 4 hours of incubation, plates were allowed to adjust to room temperature for 1 hour. Then, Luclite (PerkinElmer) solution was added to the wells and cells were allowed to lyse for at least 1 hour at room temperature. Subsequently, luciferase activity was measured in a luminescence counter. The signal is expressed as counts per second (cps). The EC50 (concentration of the test compound that elicits half-maximal (50%) luciferase stimulation compared to the compound's maximally attainable effect) and efficacy values (maximal effect of the test compound as percentage of the maximal effect of recombinant human FSH) of the compounds were determined using the software program MathIQ (version 2.0, ID Business Solutions Limited). pEC50 data (pEC50 is −log EC50) are indicated at the synthesis examples.

Compound	hFSHRago (CHO luc) pEC50
COc1cc2c(cc1-c1ccn(C)n1)-c1c(-c3cccs3)c3c(n1CC2)C(=O)N(C(C)(C)C)CCC3 [Compound 4h]	7.19
CC(C)(C)N1CCCc2c(-c3cccs3)c3n(c2C1=O)CCc1ccc(-c2cnccn2)cc1-3 [Compound 4i]	7.86
COc1cc2c(cc1-c1cccnc1)-c1c(-c3cncs3)c3c(n1CC2)C(=O)N(C(C)(C)C)CCCC3 [Compound 11j, 9-tert-butyl-3-methoxy-2-pyridin-3-yl-14-(1,3-thiazol-5-yl)-5,6,10,11,12,13-hexahydroazocino[4′,3′:4,5]pyrrolo[2,1-a]isoquinolin-8(9H)-one]	8.51

Same assay, conditions: CHO cells stably transfected with human FSH receptor and CRE/luciferase reporter; 4 hours incubation; pEC50 is -log EC50; read-out: hFSHRago (CHO luc) pEC50 (converted)

Compound	EC50 [nM]
COc1cc2c(cc1[N+](=O)[O-])-c1c(-c3cccs3)c3c(n1CC2)C(=O)N(C(C)(C)C)CC3 [Compound 1i, 9-tert-butyl-3-methoxy-2-nitro-12-(2-thienyl)-5,6,10,11-tetrahydropyrido[4′,3′:4,5]pyrrolo[2,1-a]isoquinolin-8(9H)-one]	100
COc1cc2c(cc1[N+](=O)[O-])-c1c(-c3cccs3)c3c(n1CC2)C(=O)N(C(C)(C)C)CCC3 [Compound 2h, 9-tert-butyl-2-nitro-3-methoxy-13-(2-thienyl)-5,6,9,10,11,12-hexahydro-8H-azepino[4′,3′:4,5]pyrrolo[2,1-a]isoquinolin-8-one]	34.7
CCn1nnc(-c2cc3c(cc2OC)CCn2c4c(c(-c5cccs5)c2-3)CCCN(C(C)(C)C)C4=O)n1 [Compound 3e, 9-tert-butyl-2-(2-ethyl-2H-tetrazol-5-yl)-3-methoxy-13-(2-thienyl)-5,6,9,10,11,12-hexahydro-8H-azepino[4′,3′:4,5]pyrrolo[2,1-a]isoquinolin-8-one]	36.3
COc1cc2c(cc1NC(=O)C(C)C)-c1c(-c3cccs3)c3c(n1CC2)C(=O)N(C(C)(C)C)CCC3 [Compound 3f, 9-tert-butyl-2-isobutyramido-3-methoxy-13-(2-thienyl)-5,6,9,10,11,12-hexahydro-8H-azepino[4′,3′:4,5]pyrrolo[2,1-a]isoquinolin-8-one]	126
COc1cc2c(cc1-c1ncco1)-c1c(-c3cccs3)c3c(n1CC2)C(=O)N(C(C)(C)C)CCC3 [Compound 4f, 9-tert-butyl-2-(oxazol-2-yl)-3-methoxy-13-(2-thienyl)-5,6,9,10,11,12-hexahydro-8H-azepino[4′,3′:4,5]pyrrolo[2,1-a]isoquinolin-8-one]	11.5
COc1cc2c(cc1-c1cccnc1)-c1c(-c3cccs3)c3c(n1CC2)C(=O)N(C(C)(C)C)CCC3 [Compound 4g, 9-tert-butyl-2-(pyridin-3-yl)-3-methoxy-13-(2-thienyl)-5,6,9,10,11,12-hexahydro-8H-azepino[4′,3′:4,5]pyrrolo[2,1-a]isoquinolin-8-one]	4.17
COc1cc2c(cc1OC(C)C)-c1c(-c3cccs3)c3c(n1CC2)C(=O)N(C(C)(C)C)CCC3 [Compound 6e]	11
COc1cc2c(cc1OC(C)C)-c1c(-c3cccs3)c3c(n1CC2)C(=O)N(C(C)C)CCC3 [Compound 6f]	50.1
COc1cc2c(cc1-c1cccnc1)-c1c(-c3cccs3)c3c(n1CC2)C(=O)N(C(C)(C)C)CCCOC3 [Compound 7l, 9-tert-butyl-3-methoxy-2-pyridin-3-yl-15-(2-thienyl)-5,6,9,10,11,12-hexahydro[1,5]oxazonino[8′,7′:4,5]pyrrolo[2,1-a]isoquinolin-8(14H)-one]	2.82
COc1cc2c(cc1-c1cnccn1)-c1c(-c3cccs3)c3c(n1CC2)C(=O)N(C(C)(C)C)CCCOC3 [Compound 7m, 9-tert-butyl-3-methoxy-2-pyrazin-2-yl-15-(2-thienyl)-5,6,9,10,11,12-hexahydro[1,5]oxazonino[8′,7′:4,5]pyrrolo[2,1-a]isoquinolin-8(14H)-one]	17.8
COc1cc2c(cc1-c1cccnc1)-c1c(-c3cncs3)c3c(n1CC2)C(=O)N(C(C)(C)C)CCCOC3 [Compound 8f, 9-tert-butyl-3-methoxy-2-pyridin-3-yl-15-(1,3-thiazol-5-yl)-5,6,9,10,11,12-hexahydro[1,5]oxazonino[8′,7′:4,5]pyrrolo[2,1-a]isoquinolin-8(14H)-one]	14.1
COc1cc2c(cc1-c1cnccn1)-c1c(-c3cncs3)c3c(n1CC2)C(=O)N(C(C)(C)C)CCCOC3 [Compound 8g, 9-tert-butyl-3-methoxy-2-pyrazin-2-yl-15-(1,3-thiazol-5-yl)-5,6,9,10,11,12-hexahydro[1,5]oxazonino[8′,7′:4,5]pyrrolo[2,1-a]isoquinolin-8(14H)-one]	120
COc1cc2c(cc1-c1cccnc1)-c1c(-c3cccs3)c3c(n1CC2)C(=O)N(C(C)C)CCN(C(C)=O)C3 [Compound 10p, 12-acetyl-9-isopropyl-3-methoxy-2-pyridin-3-yl-14-(2-thienyl)-5,6,10,11,12,13-hexahydro[1,4]diazocino[6′,7′:4,5]pyrrolo[2,1-a]isoquinolin-8(9H)-one]	5.25
COc1cc2c(cc1-c1c(C)nn(C)c1C)-c1c(-c3cccs3)c3c(n1CC2)C(=O)N(C(C)C)CCNC3 [Compound 10q, 9-isopropyl-3-methoxy-2-(1,3,5-trimethyl-1H-pyrazol-4-yl)-14-(2-thienyl)-5,6,10,11,12,13-hexahydro[1,4]diazocino[6′,7′:4,5]pyrrolo[2,1-a]isoquinolin-8(9H)-one]	257
COc1cc2c(cc1-c1c(C)nn(C)c1C)-c1c(-c3cccs3)c3c(n1CC2)C(=O)N(C(C)C)CCN(C(C)=O)C3 [Compound 10r, 12-acetyl-9-isopropyl-3-methoxy-14-(2-thienyl)-2-(1,3,5-trimethyl-1H-pyrazol-4-yl)-5,6,10,11,12,13-hexahydro[1,4]diazocino[6′,7′:4,5]pyrrolo[2,1-a]isoquinolin-8(9H)-one]	162
COc1cc2c(cc1-c1c(C)nn(C)c1C)-c1c(-c3cccs3)c3c(n1CC2)C(=O)N(C(C)C)CCN(C(=O)C(C)C)C3 [Compound 10s, 12-isobutyryl-9-isopropyl-3-methoxy-14-(2-thienyl)-2-(1,3,5-trimethyl-1H-pyrazol-4-yl)-5,6,10,11,12,13-hexahydro[1,4]diazocino[6′,7′:4,5]pyrrolo[2,1-a]isoquinolin-8(9H)-one]	5010
COc1cc2c(cc1-c1c(C)nn(C)c1C)-c1c(-c3cccs3)c3c(n1CC2)C(=O)N(C(C)C)CCN(C(=O)CCC(F)(F)F)C3 [Compound 10t, 9-isopropyl-3-methoxy-14-(2-thienyl)-12-(4,4,4-trifluorobutanoyl)-2-(1,3,5-trimethyl-1H-pyrazol-4-yl)-5,6,10,11,12,13-hexahydro[1,4]diazocino[6′,7′:4,5]pyrrolo[2,1-a]isoquinolin-8(9H)-one]	977
COc1cc2c(cc1-c1cccnc1)-c1c(-c3cccs3)c3c(n1CC2)C(=O)N(C(C)C)CCN(C(=O)C(C)C)C3 [Compound 10w, 9-isopropyl-3-methoxy-12-isobutyryl-14-(2-thienyl)-2-pyridin-3-yl-5,6,10,11,12,13-hexahydro[1,4]diazocino[6′,7′:4,5]pyrrolo[2,1-a]isoquinolin-8(9H)-one]	759
COc1cc2c(cc1-c1ncco1)-c1c(-c3cccs3)c3c(n1CC2)C(=O)N(C(C)C)CCN(C(=O)C(C)C)C3 [Compound 10x, 9-isopropyl-3-methoxy-12-isobutyryl-14-(2-thienyl)-2-oxazol-2-yl-5,6,10,11,12,13-hexahydro[1,4]diazocino[6′,7′:4,5]pyrrolo[2,1-a]isoquinolin-8(9H)-one]	1260

Reference: patent publication US8431564B2 (Merck Sharp & Dohme B.V., priority 2009, dated 2013)
